Data reported in US20260201335A1, “A Method to Generate Cardiac Pericytes from Human Induced Pluripotent Stem Cells” (The Board of Trustees of the Leland Stanford Junior …, priority 2022, published 2026).

Columns and labels:
[1] = test system: iPSC-SMCs; experiment: Calcium imaging using Fura-2 AM after carbachol; assay type: cell-based, human; conditions: iPSC-SMCs after carbachol treatment
From the text: (§1) FIG. 1. […] Key changes of hallmarks in each cluster are highlighted. […] GraphPad Prism 9 was used for statistical analysis. All data are presented as mean±sem.
(§2) Next, we examined the relative cell contraction capacities of iPSC-CPs versus iPSC-SMCs by measuring intracellular calcium transients after carbachol treatment. […] We also tested the pro-angiogenic potentials of iPSC-CPs.

[2] = test system: iPSC-CPs; experiment: Calcium imaging using Fura-2 AM after carbachol; assay type: cell-based, human
From the text: as §1, §2

[3] = test system: CPs; conditions: mice, cited from earlier work
[4] = test system: iPSC-CPs; experiment: PrestoBlue viability assay, sunitinib dose-response; assay type: cell-based, human; conditions: 72 hr, sunitinib 0 μM-100 μM
From the text: (§3) FIG. 1. Phenotypic characterization and functional assessment of stepwise differentiated iPSC-cardiac pericytes. A, A schematic showing stage-specific inhibition and activation of morphogens to generate pure epicardial cells (EPI) from human induced pluripotent stem cells (iPSCs). […] MPS, mid-primitive streak; LPM, lateral plate mesoderm; SM, splanchnic mesoderm; ST, septum transversum; PEO, pre-epicardial organ. B, Immunofluorescent images (ZO1 and WT1), flow cytometry (WT1) graphs (n=10 iPSC lines, 5M/5F), and quantitative data showing EPI induction efficiency by stepwise (i) and GiWiGi (ii) protocols. C, Quantitative reverse transcription PCR (RT-qPCR) results showing expression levels of canonical (WT1, TBX18, and TCF21) and mature (ALDH1A2, UPK3B, and ANXA8) markers of EPIs derived by both protocols. D, Single-cell ATAC sequencing (scATAC-seq) of EPIs generated by both GiWiGi (ii) and stepwise (iii) protocols are projected to that of human fetal heart cell clusters (i). […] H, Bright field and immunofluorescent images of iPSC-derived SMCs, cardiac fibroblasts (CFs), and endothelial cells (ECs).

[5] = test system: iPSC-CPs; experiment: Gene clustering / gene ontology analysis of treated iPSC-CPs (RNA-seq); assay type: cell-based, human; conditions: sunitinib (5 μM)/thalidomide (1 μM), 72 hr
[6] = test system: primary and iPSC-CPs; experiment: Thalidomide rescue of sunitinib-induced CP death (cell morphology); assay type: cell-based, human; conditions: sunitinib (5 μM)/thalidomide (1 μM), 72 hr
From the text: as §3

[7] = test system: stepwise EPIs; experiment: Differentiation of stepwise EPIs to iPSC-CPs with exogenous PDGF-BB (flow cytometry); assay type: cell-based, human; conditions: exogenous PDGF-BB in pericyte medium
From the text: as §1
Next, we differentiated stepwise EPIs in a commercial pericyte medium and observed that it took at least 12 days to generate iPSC-CPs (FIG. 1E) with low efficiency (FIG. 1F).
Day 11. EPI to Cardiac pericyte, CP. Aspects of the disclosure relate to producing cardiac pericytes through contacting a population of epicardial cells with a cardiac pericyte composition. As described herein, cardiac pericyte induction compositions may vary and generally comprise effective amounts of a PDGF pathway activator in a commercial pericyte medium (ScienCell cat #1201). An exemplary CP induction medium comprises 10 ng/ml PDGF-BB in pericyte medium.

## C[N+](C)(C)CCOC(N)=O [carbachol]
[1]
  contraction pattern (intracellular calcium transients): stereotypical contraction pattern
[2]; after carbachol treatment
  calcium amplitude, iPSC-CPs versus iPSC-SMCs: much smaller calcium amplitude
[2]; iPSC-CPs after carbachol treatment
  contraction pattern (intracellular calcium transients): stereotypical contraction pattern

## CCN(CC)CCNC(=O)c1c(C)[nH]c(/C=C2\C(=O)Nc3ccc(F)cc32)c1C [sunitinib]
[3]; previous study
  coronary microvascular abnormalities and cardiac dysfunction, primary target cells: CPs were the primary targets
[4]
  sunitinib-induced cell death, sensitivity of iPSC-CPs versus iPSC-CMs: iPSC-CPs were more sensitive than iPSC-CMs

## O=C1CCC(N2C(=O)c3ccccc3C2=O)C(=O)N1 (stereo not drawn) [thalidomide]
[5]
  genes associated with cell cycle, pericyte function, and DNA damage: restored genes associated with cell cycle, pericyte function, and DNA damage to a baseline level
[6]
  rescue of CP death: profoundly rescued CP death
[3]
  rescue from sunitinib-induced CP loss and cardiac dysfunction: can rescue mice from sunitinib-induced CP loss and cardiac dysfunction

B1: PDGF-BB: platelet-derived growth factor ligand predominantly secreted by ECs; PDGF pathway activator (protein, UniProt P01127 82-190, looked up)
Platelet-derived growth …: SLGSLTIAEPAMIAECKTRTEVFEISRRLIDRTNANFLVWPPCVEVQRCSGCCNNRNVQCRPTQVQLRPVQVRKIEIVRKKPIFKKATVTLEDHLACKCETVAAARPVT
modifications: homodimer
[7]
  generation of iPSC-CPs (PDGFRβ+/CD146+/NG2+/CD13+): successfully generated pure iPSC-CPs
